The results in this text go back to patent US8178535B2, “Substituted sulfonamide compounds having bradykinin 1 receptor activity and use thereof as medicaments” (Gruenenthal GmbH, priority 2008, dated 2012).

For orientation: inhibition means the change of the read-out against control, counted positive when it falls.

Molecules are shown by their SMILES.

Experiment [1] concerns the target T1, human B1R receptor (hB1R) (Homo sapiens, UniProt P46663).
T1 construct: host or cells: CHO K1 cells
T1 sequence (P46663 1-353): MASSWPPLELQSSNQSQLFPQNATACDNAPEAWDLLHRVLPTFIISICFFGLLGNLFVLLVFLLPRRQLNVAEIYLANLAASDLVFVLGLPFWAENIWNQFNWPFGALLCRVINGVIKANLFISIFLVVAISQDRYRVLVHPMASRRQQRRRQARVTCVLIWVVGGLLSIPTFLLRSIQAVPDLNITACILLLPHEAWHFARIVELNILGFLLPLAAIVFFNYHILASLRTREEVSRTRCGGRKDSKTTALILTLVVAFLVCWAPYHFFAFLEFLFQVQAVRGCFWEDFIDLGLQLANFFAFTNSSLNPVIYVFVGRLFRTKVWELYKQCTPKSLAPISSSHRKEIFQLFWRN
Description: FLIPR Ca2+ assay (Fluo-4) on CHO K1 cells stably transfected with the human B1R gene. Conditions: CHO-K1; test substance 10 μM; agonist Lys-Des-Arg9-bradykinin 0.5 nM; % inhibition compared to the maximum achievable inhibition. The experiment is classed as cell-based. As to the method: (§1) The agonistic or antagonistic action of compounds can be quantified on the bradykinin 1 receptor (B1R) of humans and rats with ectopically expressing cell lines (CHO K1 cells) and with the aid of a Ca^2+-sensitive dye (Fluo-4) in the fluorescent imaging plate reader (FLIPR). The figure in percent activation refers to the Ca^2+ signal after addition of Lys-Des-Arg^9-bradykinin (0.5 nM) and Des-Arg^9-bradykinin (100 nM). Antagonists result in a suppression of the Ca^2+ inflow after the addition of the agonist. Percent inhibition values are given in comparison to the maximum achievable inhibition. The compounds according to the invention act, for example, on the B1R which is implicated in various disease states. This means that the compounds of the invention are useful as pharmaceutically active substances in medicaments for the treatment and/or inhibition of such disease states.
(§2) The agonistic or antagonistic action of substances can be determined on the bradykinin 1 receptor (B1R) of humans and rats by means of the following assay. According to this assay the Ca^2+ inflow through the channel is quantified by means of a Ca^2+-sensitive dye (Fluo-4 type, Molecular Probes Europe BV, Leiden, Netherlands), in a Fluorescent Imaging Plate Reader (FLIPR, Molecular Devices, Sunnyvale, USA).
(§3) Chinese hamster ovary cells (CHO K1 cells) are used, which are stably transfected with the human B1R gene (hB1R cells, Euroscreen s.a., Gosselies, Belgium), or with the B1R gene of rats (rB1R cells, Axxam, Milan, Italy). For functional investigations these cells are plated out on black 96-well plates with a clear floor (BD Biosciences, Heidelberg, Germany) in a density of 20,000/25,000 cells/well. The cells are incubated overnight with 10 vol. % FBS (foetal bovine serum, Gibco Invitrogen GmbH, Karlsruhe, Germany) at 37° C. and 5% CO2 in a culture medium (hB1R cells: Nutrient Mixture Ham's F12, Gibco Invitrogen GmbH, Karlsruhe, Germany; rB1R cells: D-MEM/F12, Gibco Invitrogen GmbH, Karlsruhe, Germany). The following day the cells are charged for 60 minutes at 37° C. with 2.13 μM Fluo-4 (Molecular Probes Europe BV, Leiden, Netherlands) in HBSS buffer (Hank's buffered saline solution, Gibco Invitrogen GmbH, Karlsruhe, Germany) together with […] (Sigma-Aldrich, Taufkirchen, Germany) and 10 mM HEPES (Sigma-Aldrich, Taufkirchen, Germany).
(§4) The plates are then washed twice with HBSS buffer and HBSS buffer is added which additionally contains 0.1% BSA (bovine serum albumin; Sigma-Aldrich, Taufkirchen, Germany), 5.6 mM glucose and 0.05% gelatin (Merck KGaA, Darmstadt, Germany). After further incubation for 20 minutes at room temperature the plates are used for the Ca^2+ measurement in the FLIPR. The Ca^2+-dependent fluorescence is measured both before and after the addition of substances (λex=488 nm, λem=540 nm). The quantification is carried out by measuring the highest fluorescence intensity (FC, fluorescence counts) over time.
(§5) The FLIPR protocol consists of two substance additions. First, test substances (10 μM) are pipetted onto the cells and the Ca^2+ inflow is compared with the control (hB1R: Lys-Des-Arg9-bradykinin 0.5 nM; rB1R: Des-Arg9-bradykinin 100 nM). This gives the result in percent activation referred to the Ca^2+ signal after addition of Lys-Des-Arg9-bradykinin (0.5 nM), bzw. Des-Arg9-bradykinin (100 nM). After 10 minutes' incubation 0.5 nM Lys-Des-Arg9-bradykinin (hB1R) and 100 nM Des-Arg^9-bradykinin (rB1R) are applied and the inflow of Ca^2+ is likewise determined. Antagonists lead to a suppression of the Ca^2+ inflow. The percent inhibition compared to the maximum achievable inhibition is calculated. The compounds show a good activity on both human and rat receptors.
(§6) The agonistic and antagonistic action of the compounds according to the invention on the bradykinin 1 receptor (B1R) of humans and rats were determined as described above. Antagonists lead to a suppression of the Ca^2+ inflow. […]

The target of experiment [2] is T2, B1R receptor of rats (rB1R) (Rattus norvegicus, UniProt P97583).
T2 construct: host or cells: CHO K1 cells
T2 sequence (P97583 1-337): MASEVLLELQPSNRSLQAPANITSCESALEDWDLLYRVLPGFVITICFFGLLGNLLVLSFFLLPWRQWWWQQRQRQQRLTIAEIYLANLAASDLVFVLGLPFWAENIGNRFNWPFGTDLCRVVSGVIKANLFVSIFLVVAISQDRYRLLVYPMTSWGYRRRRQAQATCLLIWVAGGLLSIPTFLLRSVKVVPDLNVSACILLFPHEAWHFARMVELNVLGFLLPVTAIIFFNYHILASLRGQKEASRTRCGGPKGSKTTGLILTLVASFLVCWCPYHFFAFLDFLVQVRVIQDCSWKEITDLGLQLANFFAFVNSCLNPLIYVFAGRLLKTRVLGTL
Description: FLIPR Ca2+ assay (Fluo-4) on CHO K1 cells stably transfected with the B1R gene of rats. The format is cell-based. The conditions noted are these: CHO-K1; test substance 10 μM; agonist Des-Arg9-bradykinin 100 nM; % inhibition compared to the maximum achievable inhibition. As to the method: as §1, §2, §3, §4, §5, §6

Take `Cc1cc(S(=O)(=O)N2CCCCC2CCC(=O)N2CCn3c(CCCN4CCCC4)ccc3C2)c(C)cc1Cl` (centres unmarked) [(18), 3-(1-(4-chloro-2,5-dimethylphenylsulfonyl)piperidin-2-yl)-1-(6-(3-(pyrrolidin-1-yl)propyl)-3,4-dihydropyrrolo[1,2-a]pyrazin-2(1H)-yl)propan-1-one]: the values for the inhibition at 10 µM in experiment [1] and in experiment [2] were 90% and 99%, respectively.

For the compound `CCC1c2cccn2CCN1C(=O)COCC1CCCCN1S(=O)(=O)c1c(C)cc(OC)cc1C` (centres unmarked) [(70), 1-(1-ethyl-3,4-dihydropyrrolo[1,2-a]pyrazin-2(1H)-yl)-2-((1-(4-methoxy-2,6-dimethylphenylsulfonyl)piperidin-2-yl)methoxy)ethanone], the inhibition at 10 µM in experiment [1] is 102%; in experiment [2] it was 103%.

Take `COc1cc(C)c(S(=O)(=O)N2CCCCC2COCC(=O)N2CCn3cccc3C2c2cccc(C(F)(F)F)c2)c(C)c1` (centres unmarked) [(30), 2-((1-(4-methoxy-2,6-dimethylphenylsulfonyl)piperidin-2-yl)methoxy)-1-(1-(3-(trifluoromethyl)phenyl)-3,4-dihydropyrrolo[1,2-a]pyrazin-2(1H)-yl)ethanone]: the inhibition at 10 µM in experiment [1] was 58%; in experiment [2] it was 98%.

For the compound `O=C(CC1CCCCN1S(=O)(=O)c1cccc(C(F)(F)F)c1)N1CCn2cc(CCc3ccncc3)nc2C1` (centres unmarked) [(116), 1-(2-(2-(pyridin-4-yl)ethyl)-5,6-dihydroimidazo[1,2-a]pyrazin-7(8H)-yl)-2-(1-(3-(trifluoromethyl)phenylsulfonyl)piperidin-2-yl)ethanone], the inhibition at 10 µM in experiment [1] stood at 78%; in experiment [2], 102%.

In the case of `COc1cc(C)c(S(=O)(=O)N2CCCCC2CCCC(=O)N2CCn3c(CCc4cccnc4)ccc3C2)c(C)c1` (centres unmarked) [(103), 4-(1-(4-Methoxy-2,6-dimethylphenylsulfonyl)piperidin-2-yl)-1-(6-(2-(pyridin-3-yl)ethyl)-3,4-dihydropyrrolo[1,2-a]pyrazin-2(1H)-yl)butan-1-one], the inhibition at 10 µM in experiment [1] was 95%; in experiment [2] it was 100%.

Consider `COc1cc(C)c(S(=O)(=O)N2CCCCC2CCCC(=O)N2CCn3cc(Cc4ccncc4)nc3C2)c(C)c1` (centres unmarked) [(119), 4-(1-(4-Methoxy-2,6-dimethylphenylsulfonyl)piperidin-2-yl)-1-(2-(pyridin-4-ylmethyl)-5,6-dihydroimidazo[1,2-a]pyrazin-7(8H)-yl)butan-1-one], for which the inhibition at 10 µM in experiment [1] is 90%; in experiment [2], 107%.

With `COc1cc(C)c(S(=O)(=O)N2CCCCC2CCCC(=O)N2CCn3c(ccc3-c3cccnc3)C2)c(C)c1` (centres unmarked) [(92), 4-(1-(4-Methoxy-2,6-dimethylphenylsulfonyl)piperidin-2-yl)-1-(6-(pyridin-3-yl)-3,4-dihydropyrrolo[1,2-a]pyrazin-2(1H)-yl)butan-1-one], the figures for the inhibition at 10 µM in experiment [1] and in experiment [2] were 91% and 99%, respectively.

With `COc1cc(C)c(S(=O)(=O)N2CCCCC2COCC(=O)N2CCn3c(CN4CCOCC4)ccc3C2)c(C)c1` (centres unmarked) [(6), 2-((1-(4-methoxy-2,6-dimethylphenylsulfonyl)piperidin-2-yl)methoxy)-1-(6-(morpholinomethyl)-3,4-dihydropyrrolo[1,2-a]pyrazin-2(1H)-yl)ethanone], the results for the inhibition at 10 µM in experiment [1] and in experiment [2] were 100% and 101%, respectively.

Turning to `COc1cc(C)c(S(=O)(=O)N2CCCCC2CCCC(=O)N2CCn3c(Cc4ccncc4)ccc3C2)c(C)c1` (centres unmarked) [(91), 4-(1-(4-Methoxy-2,6-dimethylphenylsulfonyl)piperidin-2-yl)-1-(6-(pyridin-4-ylmethyl)-3,4-dihydropyrrolo[1,2-a]pyrazin-2(1H)-yl)butan-1-one], the figures for the inhibition at 10 µM in experiment [1] and in experiment [2] were 95% and 100%, respectively.

With `Cc1cc(C)c(S(=O)(=O)N2CCCCC2COCC(=O)N2CCn3cccc3C2CCc2ccccc2)c(C)c1` (centres unmarked) [(45), 2-((1-(mesitylsulfonyl)piperidin-2-yl)methoxy)-1-(1-phenethyl-3,4-dihydro-pyrrolo[1,2-a]pyrazin-2(1H)-yl)ethanone], the inhibition at 10 µM in experiment [1] came out at 45%; in experiment [2], 98%.

Consider `COc1cc(C)c(S(=O)(=O)N2CCCCC2CCC(=O)N2CCn3cc(Cc4ccncc4)nc3C2)c(C)c1` (centres unmarked) [(121), 3-(1-(4-Methoxy-2,6-dimethylphenylsulfonyl)piperidin-2-yl)-1-(2-(pyridin-4-ylmethyl)-5,6-dihydroimidazo[1,2-a]pyrazin-7(8H)-yl)propan-1-one], for which the inhibition at 10 µM in experiment [1] came to 66%; in experiment [2] it was 51%.

In the case of `COc1cc(C)c(S(=O)(=O)N2CCCCC2COCC(=O)N2CCn3cccc3C2c2ccc(C)c(C)c2)c(C)c1` (centres unmarked) [(27), 1-(1-(3,4-dimethylphenyl)-3,4-dihydropyrrolo[1,2-a]pyrazin-2(1H)-yl)-2-((1-(4-methoxy-2,6-dimethylphenylsulfonyl)piperidin-2-yl)methoxy)ethanone], the inhibition at 10 µM in experiment [1] was 66%; in experiment [2] it was 97%.

As for `COc1cccc(C2c3cccn3CCN2C(=O)COCC2CCCCN2S(=O)(=O)c2c(C)cc(OC)cc2C)c1` (centres unmarked) [(31), 2-((1-(4-methoxy-2,6-dimethylphenylsulfonyl)piperidin-2-yl)methoxy)-1-(1-(3-methoxyphenyl)-3,4-dihydropyrrolo[1,2-a]pyrazin-2(1H)-yl)ethanone], the figures for the inhibition at 10 µM in experiment [1] and in experiment [2] were 96% and 98%, respectively.

For `COc1cc(C)c(S(=O)(=O)N2CCCCC2CCC(=O)N2CCn3c(ccc3-c3cccnc3)C2)c(C)c1` (centres unmarked) [(94), 3-(1-(4-Methoxy-2,6-dimethylphenylsulfonyl)piperidin-2-yl)-1-(6-(pyridin-3-yl)-3,4-dihydropyrrolo[1,2-a]pyrazin-2(1H)-yl)propan-1-one], the values for the inhibition at 10 µM in experiment [1] and in experiment [2] were 45% and 99%, respectively.

Turning to `COc1cc(C)c(S(=O)(=O)N2CCCCC2COCC(=O)N2CCn3c(CN4CCCCC4)nnc3C2)c(C)c1` (centres unmarked) [(87), 2-((1-(4-Methoxy-2,6-dimethylphenylsulfonyl)piperidin-2-yl)methoxy)-1-(3-(piperidin-1-ylmethyl)-5,6-dihydro-[1,2,4]triazolo[4,3-a]pyrazin-7(8H)-yl)ethanone], the inhibition at 10 µM in experiment [2] is 103%.
